Columns and labels:
[1] = system: NT4 internalization in MDA-MB-231 cells; test: Inhibition of NT4 internalization by pharmacological agents, confocal microscopy; type: cell-based, human; details: for reduction of NT4 internalization: ±13%
Procedure: (§1) MDA-MB-231 cells were plated at a density of 5 × 10^4 per well in 24-well plates with glass cover slides and maintained overnight at 37 °C, 5% CO2.
Cells were pretreated for 15 min with 1–10 μg/mL Chlorpromazine (Merck, Darmstadt, Germany), 25 μg/mL Nystatin (Merck), 80 μM Dynasore (Merck) and 50 µM Amiloride (Merck) at 37 °C and then incubated with 2 μM NT4-biotin and 0.5 μg/mL Streptavidin-Atto 488 in PBS-1% BSA at room temperature for 15 min. To study macropinocytosis in the presence of Amiloride, 5 mg/mL Rhodamine B isothiocyanate–Dextran in PBS-1% BSA (Merck) was incubated at room temperature for 15 min. Cells were then washed and grown in medium, with and without pharmacological agents, for 15 and 30 min at 37 °C to allow peptide internalization. After internalization, they were fixed with PBS-4% PFA and plasma membranes were stained with 2.5 μg/mL wheat germ agglutinin, Alexa Fluor 647 (Thermo Fisher Scientific) conjugate in PBS-1% BSA, incubated for 10 min at room temperature. Nuclei were stained with DAPI (0.5 μg/mL in PBS-1% BSA). Each step was followed by three washes in PBS.
Peptide binding was analyzed by confocal laser microscope (Leica TCS SP5) with 501 λ ex and 523 λ em for Atto 488, 633 λ ex and 660–680 λ em for Atto 647 and 364 λ ex and 458 λ em for DAPI. Images were single Z-planes for all channels used. All images were processed and quantified using the Leica Application Suite X program (LAS X) of the confocal laser microscope (Leica TCS SP5). The experiment was repeated at least three times and at least three different fields were acquired for each sample.

MDA-MB-231 cells [2] = test: NT4 binding to plasma membrane and internalization, confocal immunofluorescence; type: cell-based, human; details: confocal microscopy
Procedure: as §1
Cells were incubated with 2 μM NT4-biotin and 0.5 μg/mL Streptavidin-Atto 488 in PBS-1% BSA at room temperature for 15 min, then washed and grown in medium for 5, 15 and 30 min at 37 °C to allow peptide internalization. They were then fixed with PBS-4% paraformaldehyde (PFA) and saturated with PBS-5% BSA 0.3%-Triton X-100. HS was stained using 1 µg/mL anti-heparan sulfate (10E4 epitope) (Amsbio, Abingdon, UK) in PBS-1% BSA for 1 h, followed by incubation with 1 μg/mL anti-mouse IgG Rhodamine Red-X (Thermo Fisher Scientific, Waltham, MA, USA). Nuclei were stained with DAPI (0.5 μg/mL in PBS-1% BSA). Each step was followed by three washes in PBS. Peptide binding was analyzed by confocal laser microscope (Leica TCS SP5) with 380 λ ex and 450–470 λ em, 501 λ ex and 523 λ em and 633 λ ex and 660–680 λ em for DAPI, Atto 488 and Atto 647, respectively. The experiment was repeated three times and three different fields were acquired for each sample.

MDA-MB-231 cells [3] = test: 2D migration, in vitro wound-healing (scratch) assay; type: cell-based, human; details: 10 μM NT4 in complete medium, p = 0.0428, n = 2
Procedure: Cell migration was measured using an in vitro wound-healing assay. MDA-MB231 cells (5.25 × 10^4) were seeded on each side of a culture insert for live cell analysis (Ibidi, Munich, Germany). Inserts were placed in the wells of a 24-well plate and the cells were incubated at 37 °C and 5% CO2 to confluence. The inserts were removed with sterile tweezers to create a cell-free area of approximately 500 μm. The cells were treated with 10 μM NT4 peptide in complete medium and allowed to migrate in an appropriate incubator of a DMi8 (Leica Microsystems, Wetzlar, Germany) microscope. The same instrument was used to take pictures at time zero and every 5 min for 11 h.
The percentage of void area with respect to time 0 was determined using Tscratch. The time-lapse image stacks were also analyzed using ImageJ and the plug-in Chemotaxis and Migration Tool.

CDC42-GTP = test: G-LISA activation assay, CDC42; type: cell-based, human; details: starved MDA-MB-231
Procedure: Cells were seeded in six-well plates (5 × 10^5 cells per well) and maintained for 12 h in a CO2 incubator. To measure Rac-1, RhoA and CDC42 GTPases, they were treated with 10 µM NT4 in DMEM-0.1% BSA, serum-free, for 12 h at 37 °C and then incubated with 0.1 μg/mL hEGF (Cell Signaling) for 2 min for Rac-1 and CDC42 GTPases and for 5 min for RhoA GTPase. Cells were washed with cold PBS, lysed and processed for colorimetric G-LISA activation assays (Cytoskeleton, Denver, CO, USA), according to the manufacturer’s instructions. The activated forms of the G proteins were detected by incubation with specific primary antibody, followed by a secondary antibody conjugated with HRP and a detection reagent. The signal was read by measuring absorbance at 490 nm using a microplate reader. […]

Rac1-GTP = test: G-LISA activation assay, Rac1; type: cell-based, human; details: starved MDA-MB-231
Procedure: (§2) Cells were seeded in six-well plates (5 × 10^5 cells per well) and maintained for 12 h in a CO2 incubator. To measure Rac-1, RhoA and CDC42 GTPases, they were treated with 10 µM NT4 in DMEM-0.1% BSA, serum-free, for 12 h at 37 °C and then incubated with 0.1 μg/mL hEGF (Cell Signaling) for 2 min for Rac-1 and CDC42 GTPases and for 5 min for RhoA GTPase. Cells were washed with cold PBS, lysed and processed for colorimetric G-LISA activation assays (Cytoskeleton, Denver, CO, USA), according to the manufacturer’s instructions. The activated forms of the G proteins were detected by incubation with specific primary antibody, followed by a secondary antibody conjugated with HRP and a detection reagent. The signal was read by measuring absorbance at 490 nm using a microplate reader. The experiment was repeated three times.

Rac-1-GTP = test: Rac1 pulldown assay (GST-PAK1-PBD beads, immunoblot); type: cell-based, human; details: MDA-MB-231, no EGF
Procedure: Rac1 activity was measured by pulldown assay using the active Rac1 detection kit (Cell Signaling), according to the manufacturer’s instructions. Cells were seeded in six-well plates (5 × 10^5 cells per well) and maintained for 24 h in a CO2 incubator. Cells were washed with cold PBS and lysed. Protein lysates were centrifuged and the supernatant was collected in new tubes containing beads pre-coupled with GST–PAK1-PBD and incubated under rotation at 4 °C for 60 min. The beads were washed and the proteins bound to them were separated by SDS-PAGE. The amounts of active Rac1 were determined by immunoblot analysis. Signals were detected using a LAS4010 imaging system (GE Healthcare, Chicago, IL, USA).

RhoA-GTP = test: G-LISA activation assay, RhoA; type: cell-based, human; details: starved MDA-MB-231, n = 3
Procedure: as §2

heparan sulfate chains = details: surface plasmon resonance; cited from earlier work
MDA-MB231 cells = details: flow cytometry; cited from earlier work
Procedure: The peptide bound to the plasma membrane (Figure 1A), most was internalized in cells within 15–30 min (Figure 1B,C) and it was completely endocytosed within 1 h (Figure 1D). The antibody anti-HS clone 10E4 [20], the epitope of which includes an N-sulfated glucosamine r ...

proteolytic enzymes = details: imparted by branched structure; cited from earlier work
Excerpt: NT4 is a tetrabranched peptide obtained by synthesizing four copies of the 13-amino-acid sequence on a branched core of lysines. […] The peptide has already been tested in animal models of cancer and has shown good specificity for tumor versus healthy cells. It also countered the invasive ...

Molecule: N=C(N)NC(=O)c1nc(Cl)c(N)nc1N [Amiloride]
- impairment of NT4 internalization ([1]; 50 µM amiloride pre-treatment, p = 0.0461): more than 50%

Molecule: CN(C)CCCN1c2ccccc2Sc2ccc(Cl)cc21 [chlorpromazine]
- reduction of NT4 internalization ([1]; chlorpromazine 1 μg/mL, n = 3, p = 0.0279): 27%
- reduction of NT4 internalization ([1]; chlorpromazine 10 μg/mL, n = 4, p = 0.0327): 57%

Molecule: O=C(N/N=C/c1ccc(O)c(O)c1)c1cc2ccccc2cc1O [dynasore]
- effect on NT4 internalization ([1]; 80 μM dynasore, n = 6, p = 0.0043): no longer internalized NT4

Molecule: C[C@@H]1[C@H](O)[C@@H](C)/C=C/C=C/CC/C=C/C=C/C=C/C=C/C(O[C@H]2O[C@H](C)[C@@H](O)[C@H](N)[C@@H]2O)CC2O[C@](O)(CC(O)C(O)CCC(O)CC(O)CC(O)CC(=O)O[C@H]1C)CC(O)C2C(=O)O (some centres unmarked) [nystatin]
- inhibition of NT4 endocytosis ([1]; 25 μg/mL nystatin, 15 min, 2 μM NT4-biotin, n = 9, p = 0.0345): 60%

Molecule: (pyELYENKPRRPYIL)4K2K-beta-Ala [NT4]
- time within which most of the peptide was internalized in cells (MDA-MB-231 cells [2]; 2 μM NT4-biotin + 0.5 μg/mL Streptavidin-Atto 488, 15 min RT in PBS-1% BSA, then medium at 37 °C): 15 to 30 min
- time within which the peptide was completely endocytosed (MDA-MB-231 cells [2]; 2 μM NT4-biotin + Streptavidin-Atto 488, 37 °C): ≤ 1 h
- effect on MDA-MB-231 migration (gap closure in 8 h) (MDA-MB-231 cells [3]): slowed MDA-MB-231 migration
- effect on CDC42 activation without EGF (CDC42-GTP; 10 µM NT4 12 h, no EGF): no effect on CDC42 activation
- effect on EGF-induced CDC42 activation (CDC42-GTP; 10 µM NT4 12 h, then 0.1 μg/mL hEGF 2 min, n = 2): mitigates activation of CDC42 induced by the growth factor
- effect on EGF-induced Rac1 activation (Rac1-GTP; 10 µM NT4 12 h, then 0.1 μg/mL hEGF 2 min): not significantly changed
- effect on basal levels of Rac-1-GTP (Rac-1-GTP): not affected
- reduction of RhoA (RhoA-GTP) (RhoA-GTP; 10 µM NT4 12 h alone, without EGF): 20%
- reduction of RhoA (RhoA-GTP) (RhoA-GTP; EGF with NT4: 10 µM NT4 12 h, then 0.1 μg/mL hEGF 5 min): 21%
- binding to heparan sulfate chains (heparan sulfate chains): bind heparan sulfate chains
- binding to MDA-MB231 cells (MDA-MB231 cells): bind to MDA-MB231 cells
- stability against proteolytic enzymes (proteolytic enzymes): stability against proteolytic enzymes

Molecule: EGF: growth factor (hEGF, Cell Signaling) used to stimulate Rho GTPases
- effect on CDC42-GTP (CDC42-GTP; 0.1 μg/mL hEGF 2 min): increased
- effect on Rac1-GTP (Rac1-GTP; 0.1 μg/mL hEGF 2 min): transiently activated
- reduction of RhoA (RhoA-GTP) (RhoA-GTP; 0.1 μg/mL hEGF 5 min alone): 26%
